The text below walks through data of US8785470B2, “Heterocyclic compounds and uses thereof” (Infinity Pharmaceuticals, Inc., priority 2011, dated 2014).

As usually defined, the IC50 is the midpoint of a concentration-inhibition curve.

For one test, the system named is Balb/c splenic B cells. Briefly: B cell activation and proliferation assay. The class given is cell-based. The conditions noted are these: Mus musculus, column bins 1 μM to 100 nM (given as 100-1000) and Less than 100 nM, read-out: B cell proliferation EC50. On the procedure:
The ability of one or more subject compounds to inhibit B cell activation and proliferation is determined according to standard procedures known in the art. For example, an in vitro cellular proliferation assay is established that measures the metabolic activity of live cells. The assay is performed in a 96 well microtiter plate using Alamar Blue reduction. Balb/c splenic B cells are purified over a Ficoll-Paque™ PLUS gradient followed by magnetic cell separation using a MACS B cell Isolation Kit (Miletenyi). Cells are plated in 90 μl at 50.000 cells/well in B Cell Media (RPMI+10% FBS+Penn/Strep+50 μME5 mM HEPES). A compound provided herein is diluted in B Cell Media and added in a 10 μl volume. Plates are incubated for 30 min at 37° C. and 5% CO2 (0.2% DMSO final concentration). A 50 μl B cell stimulation cocktail is then added containing either 10 μg/ml LPS or 5 μg/ml F(ab′)2 Donkey anti-mouse IgM plus 2 ng/ml recombinant mouse IL4 in B Cell Media. Plates are incubated for 72 hours at 37° C. and 5% CO2. A volume of 15 μL of Alamar Blue reagent is added to each well and plates are incubated for 5 hours at 37° C. and 5% CO2. Alamar Blue fluoresce is read at 560Ex/590Em, and IC50 or EC50 values are calculated using GraphPad Prism 5.

The target in a further test is T1, PI3Kβ (Homo sapiens, UniProt P42338).
T1 construct: purchased Millipore Corporation 14-603-K
Nature of the test: PI3-Kinase HTRF assay, PI3Kβ. The class given is biochemical. The conditions noted are these: bins Greater than 10 μM and Greater than 1 μM to 10 μM; 10 μM ATP, PIP2 at 10 μM. From the text:
(§1) A PI3-Kinase HTRF® assay kit (cat No. 33-016) purchased from Millipore Corporation was used to screen compounds provided herein. This assay used specific, high affinity binding of the GRPI pleckstrin homology (PH) domain to PIP3, the product of a Class 1A or 1B PI3 Kinase acting on its physiological substrate PIP2. During the detection phase of the assay, a complex was generated between the GST-tagged PH domain and biotinylated short chain PIP3. The biotinylated PIP3 and the GST-tagged PH domain recruited fluorophores (Streptavidin-Allophycocyanin and Europium-labeled anti-GST respectively) to form the fluorescence resonance energy transfer (FRET) architecture, generating a stable time-resolved FRET signal. The FRET complex was disrupted in a competitive manner by non-biotinylated PIP3, a product formed in the PI3 Kinase assay.
(§2) PI3 Kinase α, β, γ and δ activity was assayed using the PI3 Kinase HTRF® assay kit (catalogue No. 33-016) purchased from Millipore Corporation. Purified recombinant PI3Kα (catalogue No. 14-602-K), PI3Kβ (catalogue No. 14-603-K), PI3Kγ (catalogue No. 14-558-K) and PI3Kδ (catalogue No. 14-604-K) were obtained from Millipore Corporation. Purified recombinant PI3K enzyme was used to catalyze the phosphorylation of phosphatidylinositol 4,5-bisphosphate (PIP2 at 10 μM) to phosphatidylinositol 3,4,5-trisphosphate (PIP3) in the presence of 10 μM ATP. The assay was carried out in 384-well format and detected using a Perkin Elmer EnVision Xcite Multilabel Reader. Emission ratios were converted into percent inhibitions and imported into GraphPad Prism software. The concentration necessary to achieve inhibition of enzyme activity by 50% (IC50) was calculated using concentrations ranging from 20 μM to 0.1 nM (12-point curve). IC50 values were determined using a nonlinear regression model available in GraphPad Prism 5. […]
In general terms: TR-FRET usually uses a lanthanide donor and a delayed reading to cut background.

Another test deals with T2, PI3Kα (Homo sapiens, UniProt P42336).
T2 construct: purchased Millipore Corporation 14-602-K
Briefly: PI3-Kinase HTRF assay, PI3Kα. The class given is biochemical. The following applies: bins Greater than 10 μM and Greater than 1 μM to 10 μM; 10 μM ATP, PIP2 at 10 μM; read-out: IC50 P13Kα.
Description: as §1, §2

T1 sequence (P42338 whole entry): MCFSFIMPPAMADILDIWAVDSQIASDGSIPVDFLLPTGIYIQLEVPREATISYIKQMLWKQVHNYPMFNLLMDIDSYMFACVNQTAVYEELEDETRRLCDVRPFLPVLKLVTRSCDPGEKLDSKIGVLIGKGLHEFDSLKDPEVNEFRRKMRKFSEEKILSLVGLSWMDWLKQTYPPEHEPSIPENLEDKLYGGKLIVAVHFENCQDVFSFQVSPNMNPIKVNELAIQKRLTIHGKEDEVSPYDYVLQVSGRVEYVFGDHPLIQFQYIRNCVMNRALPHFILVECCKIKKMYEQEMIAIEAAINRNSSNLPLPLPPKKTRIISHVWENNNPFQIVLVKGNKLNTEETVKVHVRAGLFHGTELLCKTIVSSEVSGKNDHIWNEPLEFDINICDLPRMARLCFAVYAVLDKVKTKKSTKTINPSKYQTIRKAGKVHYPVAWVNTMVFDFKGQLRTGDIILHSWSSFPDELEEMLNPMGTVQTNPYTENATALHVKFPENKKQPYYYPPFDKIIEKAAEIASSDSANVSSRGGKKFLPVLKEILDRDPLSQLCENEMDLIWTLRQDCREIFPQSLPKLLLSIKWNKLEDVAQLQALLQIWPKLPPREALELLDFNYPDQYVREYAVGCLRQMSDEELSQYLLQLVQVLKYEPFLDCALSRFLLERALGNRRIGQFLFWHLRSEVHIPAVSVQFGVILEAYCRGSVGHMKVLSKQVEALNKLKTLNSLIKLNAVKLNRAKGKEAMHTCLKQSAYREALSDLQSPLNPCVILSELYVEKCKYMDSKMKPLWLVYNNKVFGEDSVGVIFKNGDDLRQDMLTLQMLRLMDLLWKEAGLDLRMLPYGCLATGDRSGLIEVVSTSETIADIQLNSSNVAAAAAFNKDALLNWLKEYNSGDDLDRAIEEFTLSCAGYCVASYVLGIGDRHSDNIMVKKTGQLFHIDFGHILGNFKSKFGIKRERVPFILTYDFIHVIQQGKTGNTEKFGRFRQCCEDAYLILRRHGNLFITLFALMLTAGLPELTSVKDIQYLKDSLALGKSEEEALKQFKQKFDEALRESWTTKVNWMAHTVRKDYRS
T1 sequence (P27986 whole entry partner): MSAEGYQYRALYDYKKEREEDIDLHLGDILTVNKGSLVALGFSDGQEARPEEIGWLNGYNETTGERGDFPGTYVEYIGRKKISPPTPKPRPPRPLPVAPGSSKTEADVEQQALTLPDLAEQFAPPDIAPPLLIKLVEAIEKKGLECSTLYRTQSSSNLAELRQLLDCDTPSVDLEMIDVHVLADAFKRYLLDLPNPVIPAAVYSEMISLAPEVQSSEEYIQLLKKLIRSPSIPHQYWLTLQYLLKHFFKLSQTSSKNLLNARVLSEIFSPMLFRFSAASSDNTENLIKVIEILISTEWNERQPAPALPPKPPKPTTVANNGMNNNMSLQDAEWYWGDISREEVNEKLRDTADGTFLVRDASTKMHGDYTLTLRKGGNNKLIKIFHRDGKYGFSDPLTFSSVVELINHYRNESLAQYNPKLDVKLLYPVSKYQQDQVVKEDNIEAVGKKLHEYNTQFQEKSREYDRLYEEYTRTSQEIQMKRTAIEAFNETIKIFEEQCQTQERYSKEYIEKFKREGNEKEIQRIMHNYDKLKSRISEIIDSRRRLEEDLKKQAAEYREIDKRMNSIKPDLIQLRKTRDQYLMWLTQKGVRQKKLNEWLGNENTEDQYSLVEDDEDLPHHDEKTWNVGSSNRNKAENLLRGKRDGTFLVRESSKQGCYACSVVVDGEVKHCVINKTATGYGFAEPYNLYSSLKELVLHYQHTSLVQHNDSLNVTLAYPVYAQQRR
T2 sequence (P42336 whole entry): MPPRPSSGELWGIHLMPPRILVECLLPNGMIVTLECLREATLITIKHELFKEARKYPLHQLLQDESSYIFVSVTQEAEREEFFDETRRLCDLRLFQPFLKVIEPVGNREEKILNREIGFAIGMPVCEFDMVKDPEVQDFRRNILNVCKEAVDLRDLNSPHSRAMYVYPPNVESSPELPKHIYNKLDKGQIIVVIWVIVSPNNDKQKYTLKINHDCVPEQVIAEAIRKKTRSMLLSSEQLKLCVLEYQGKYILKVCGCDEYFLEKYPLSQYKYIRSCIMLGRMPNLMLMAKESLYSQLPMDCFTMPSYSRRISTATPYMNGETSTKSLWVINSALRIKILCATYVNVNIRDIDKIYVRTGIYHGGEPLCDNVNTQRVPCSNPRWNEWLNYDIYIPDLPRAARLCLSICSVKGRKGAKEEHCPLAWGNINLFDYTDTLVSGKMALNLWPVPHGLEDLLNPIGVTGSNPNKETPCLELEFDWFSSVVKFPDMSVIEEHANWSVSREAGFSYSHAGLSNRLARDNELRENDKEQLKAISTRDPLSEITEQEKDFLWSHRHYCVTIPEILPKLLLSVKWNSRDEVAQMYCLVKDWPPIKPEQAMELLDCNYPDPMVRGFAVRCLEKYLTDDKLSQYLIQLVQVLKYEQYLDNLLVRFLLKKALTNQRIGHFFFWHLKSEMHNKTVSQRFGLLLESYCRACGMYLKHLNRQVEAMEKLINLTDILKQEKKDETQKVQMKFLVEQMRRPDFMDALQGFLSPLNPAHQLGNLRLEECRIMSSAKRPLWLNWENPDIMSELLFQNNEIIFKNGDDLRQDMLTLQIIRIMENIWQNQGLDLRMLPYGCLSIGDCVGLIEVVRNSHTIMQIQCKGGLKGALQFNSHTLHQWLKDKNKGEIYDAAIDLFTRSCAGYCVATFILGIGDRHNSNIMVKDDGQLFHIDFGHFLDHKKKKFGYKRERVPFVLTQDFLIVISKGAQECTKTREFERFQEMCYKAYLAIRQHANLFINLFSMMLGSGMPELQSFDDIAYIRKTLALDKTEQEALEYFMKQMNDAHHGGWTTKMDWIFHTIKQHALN
T2 sequence (P27986 whole entry partner): as the sequence (P27986 whole entry partner) above

Consider `C[C@H](Nc1nc(N)ncc1C#N)c1cc2cccc(-c3ccc(=O)n(C)c3)c2c(=O)n1-c1ccccc1` [Compound 183], for which the EC50 in the test on Balb/c splenic B cells was under 100 nM. For the same molecule, the IC50 against PI3Kβ and on PI3Kα was 1000 to 10000 nM each time. As for `C[C@H](Nc1nc(N)ncc1C#N)c1cc2cccc(-c3cncc(C(F)(F)F)c3)c2c(=O)n1-c1ccccc1` [Compound 52], in the test on Balb/c splenic B cells, the EC50 is under 100 nM. The concentration for half-maximal inhibition (IC50) at PI3Kβ and at PI3Kα was 1000 to 10000 nM in each case. With `C[C@H](Nc1nc(N)ncc1C#N)c1cc2cccc(CC#N)c2c(=O)n1-c1ccccc1` [Compound 124], the EC50 in the test with Balb/c splenic B cells is under 100 nM. The IC50 on PI3Kβ was in the range of 1000 to 10000 nM. With `C[C@H](Nc1nc(N)ncc1-c1nccs1)c1cc2cccc(Cl)c2c(=O)n1-c1ccccc1` [Compound 224], the EC50 in the test with Balb/c splenic B cells is under 100 nM. Also, the IC50 at PI3Kβ and at PI3Kα was 1000 to 10000 nM throughout.

As to `C[C@H](Nc1nc(N)ncc1C#N)c1cc2cccc(-c3cncc(F)c3)c2c(=O)n1-c1ccccc1` [Compound 98], the EC50 with Balb/c splenic B cells is under 100 nM. Further, the half-inhibitory concentration (IC50) against PI3Kβ and on PI3Kα was 1000 to 10000 nM each time. As to `C[C@H](Nc1nc(N)ncc1C#N)c1cc2cccc(-c3ccnnc3)c2c(=O)n1-c1cccc(F)c1` [Compound 30], the EC50 with Balb/c splenic B cells was under 100 nM. For the same molecule, the IC50 at PI3Kβ was 1000 to 10000 nM.

Consider `CC(C)n1cc(-c2cccc3cc([C@H](C)Nc4nc(N)ncc4C#N)n(-c4ccccc4)c(=O)c23)ccc1=O` [Compound 234], for which the EC50 in the test with Balb/c splenic B cells was under 100 nM. Further, the IC50 on PI3Kβ and on PI3Kα was 1000 to 10000 nM each time. As for `COc1cc(-c2cccc3cc([C@H](C)Nc4nc(N)ncc4-c4cnc(OC)s4)n(-c4ccccc4)c(=O)c23)ccn1` [Compound 140], in the test with Balb/c splenic B cells, the EC50 was under 100 nM. This molecule also had an IC50 against PI3Kβ of 1000 to 10000 nM.

On to `C[C@H](Nc1nc(N)ncc1C#N)c1nc2cccc(-c3ccnnc3)c2c(=O)n1-c1ccccc1` [Compound 66, (S)-2-amino-4-((1-(4-oxo-3-phenyl-5-(pyridazin-4-yl)-3,4-dihydroquinazolin-2-yl)ethyl)amino)pyrimidine-5-carbonitrile], for which the EC50 in the test on Balb/c splenic B cells was under 100 nM. Besides, the IC50 against PI3Kβ and at PI3Kα was 1000 to 10000 nM each time. In the case of `C[C@H](Nc1nc(N)ncc1C#N)c1cc2cccc(C#CCCC(=O)N3CCCC3)c2c(=O)n1-c1ccccc1` [Compound 207], the EC50 in the test with Balb/c splenic B cells was under 100 nM. Moreover, the IC50 on PI3Kβ and at PI3Kα was 1000 to 10000 nM each time. As to `COc1cncc(-c2cccc3cc([C@H](C)Nc4nc(N)ncc4C(N)=O)n(-c4ccccc4)c(=O)c23)c1` [Compound 10, 2-amino-4-((S)-1-(8-(5-methoxypyridin-3-yl)-1-oxo-2-phenyl-1,2-dihydroisoquinolin-3-yl)ethylamino)pyrimidine-5-carboxamide], the EC50 in the test with Balb/c splenic B cells was under 100 nM. Further, the IC50 at PI3Kβ was in the range of 1000 to 10000 nM. The matching figures for `COc1cc(-c2cccc3cc([C@H](C)Nc4nc(N)ncc4-c4cnc(C)s4)n(-c4ccccc4)c(=O)c23)ccn1` [Compound 181]: under 100 nM and 1000 to 10000 nM. Regarding `C[C@H](Nc1nc(N)ncc1C#N)c1cc2cccc(-c3ccc(Cl)cc3)c2c(=O)n1-c1ccccc1` [Compound 32], the IC50 against PI3Kβ and at PI3Kα was 1000 to 10000 nM throughout. For `COc1ncc(-c2cccc3cc([C@H](C)Nc4nc(N)ncc4C#N)n(-c4ccccc4)c(=O)c23)s1` [Compound 70], the IC50 against PI3Kβ and on PI3Kα was 1000 to 10000 nM each time. As to `C[C@H](Nc1nc(N)ncc1C#N)c1cc2cccc(Cl)c2c(=O)n1CC(C)(C)C` [Compound 246], the EC50 in the test on Balb/c splenic B cells lay within 100 to 1000 nM. For the same molecule, the IC50 against PI3Kβ was in the range of 1000 to 10000 nM.

For `C[C@H](Nc1nc(N)ncc1C#N)c1cc2cccc(-c3ccc(=O)n(C4CCCC4)c3)c2c(=O)n1-c1ccccc1` [Compound 233], the EC50 in the test with Balb/c splenic B cells was under 100 nM. This molecule also returned an IC50 on PI3Kβ of 1000 to 10000 nM. Taken in the same sequence, the figures for `COc1cc(-c2cccc3cc([C@H](C)Nc4nc(N)ncc4C#N)n(-c4ccccc4)c(=O)c23)cnc1C` [Compound 100] were under 100 nM and 1000 to 10000 nM. The matching figures for `C[C@H](Nc1nc(N)ncc1-c1cccs1)c1cc2cccc(Cl)c2c(=O)n1-c1ccccc1` [Compound 367]: under 100 nM and 1000 to 10000 nM. The matching figures for `COc1cc(-c2cccc3cc([C@H](C)Nc4nc(N)ncc4C#N)n(-c4cccc(F)c4)c(=O)c23)ccn1` [Compound 28]: under 100 nM and 1000 to 10000 nM. For `C[C@H](Nc1nc(N)ncc1C#N)c1cc2cccc(-c3cnc4ccccc4c3)c2c(=O)n1-c1cccc(F)c1` [Compound 23], the EC50 in the test on Balb/c splenic B cells was under 100 nM. The same molecule returned an IC50 against PI3Kβ of 1000 to 10000 nM. With `C[C@H](Nc1nc(N)ncc1C#N)c1cc2cccc(Cl)c2c(=O)n1-c1ccc(OC(F)(F)F)cc1` [Compound 210], at PI3Kβ, the half-inhibitory concentration (IC50) lay in the range of 1000 to 10000 nM.

As for `C[C@H](Nc1nc(N)ncc1C#N)c1cc2cccc(O)c2c(=O)n1-c1ccccc1` [Compound 145], on PI3Kβ, the IC50 is 1000 to 10000 nM. On the same count and under the same terms, next, `COc1cccc(-c2cccc3cc([C@H](C)Nc4nc(N)ncc4C#N)n(-c4ccccc4)c(=O)c23)c1` [Compound 36]: 1000 to 10000 nM. Same read-out and setting: with `C[C@H](Nc1nc(N)ncc1C#N)c1cc2cccc(-c3cccc(Cl)c3)c2c(=O)n1-c1ccccc1` [Compound 34] the figure was 1000 to 10000 nM. The same measure, in the same setting: next, `C[C@H](Nc1nc(N)ncc1C#N)c1cc2cccc(-c3cccc(N(C)C)c3)c2c(=O)n1-c1ccccc1` [Compound 40]: 1000 to 10000 nM. Consider `COc1ccc(-c2cccc3cc([C@H](C)Nc4nc(N)ncc4C#N)n(-c4ccccc4)c(=O)c23)cn1` [Compound 35], for which the IC50 on PI3Kβ and on PI3Kα was 1000 to 10000 nM each time.

For the molecule `Cc1cccc2cc([C@H](C)Nc3nc(N)ncc3C(F)(F)F)n(-c3cccc(F)c3)c(=O)c12` [Compound 16], the EC50 in the test on Balb/c splenic B cells is under 100 nM. At PI3Kβ, this molecule showed an IC50 of 1000 to 10000 nM. Turning to `COc1cc(-c2cccc3cc([C@H](C)Nc4nc(N)ncc4C#N)n(-c4ccccc4)c(=O)c23)cnc1OC` [Compound 192], in the test on Balb/c splenic B cells, the EC50 is under 100 nM. At PI3Kβ, this molecule had an IC50 of 1000 to 10000 nM. For `Cc1ncc(-c2cccc3cc([C@H](C)Nc4nc(N)ncc4C#N)n(-c4ccccc4)c(=O)c23)s1` [Compound 68], the IC50 on PI3Kβ and at PI3Kα was 1000 to 10000 nM each time.

`Cc1cccc(-c2cccc3cc([C@H](C)Nc4nc(N)ncc4C#N)n(-c4ccccc4)c(=O)c23)c1` [Compound 46]: the IC50 at PI3Kβ lay within 1000 to 10000 nM. Consider `COc1cncc(-c2cccc3cc([C@H](C)Nc4nc(N)ncc4C#N)n(-c4cccc(F)c4)c(=O)c23)c1` [Compound 27], for which, in the test on Balb/c splenic B cells, the EC50 is under 100 nM. Moreover, the IC50 on PI3Kβ is 1000 to 10000 nM. At PI3Kβ, `C[C@H](Nc1nc(N)ncc1C#N)c1cc2cccc(-c3ccc(F)cc3)c2c(=O)n1-c1ccccc1` [Compound 37] came in with an IC50 of 1000 to 10000 nM. On to `COc1cccc(-c2cccc3cc([C@H](C)Nc4nc(N)ncc4C#N)n(-c4ccccc4)c(=O)c23)n1` [Compound 166], for which the EC50 with Balb/c splenic B cells was under 100 nM. On PI3Kβ, this molecule came in with an IC50 of 1000 to 10000 nM. At PI3Kβ, `COc1ccc(-n2c([C@H](C)Nc3nc(N)ncc3C#N)cc3cccc(Cl)c3c2=O)cc1` [Compound 214] came in with an IC50 of 1000 to 10000 nM. With `Cc1ccc(-n2c([C@H](C)Nc3nc(N)ncc3C#N)cc3cccc(Cl)c3c2=O)cc1` [Compound 252], in the test on Balb/c splenic B cells, the EC50 fell in the range of 100 to 1000 nM. The same molecule registered an IC50 against PI3Kβ of 1000 to 10000 nM.

With `COc1ccc(-c2cccc3cc([C@H](C)Nc4nc(N)ncc4C#N)n(-c4ccccc4)c(=O)c23)cc1` [Compound 38], the IC50 against PI3Kβ and on PI3Kα was 1000 to 10000 nM throughout.
